The text below walks through data of US20080233127A1, “IMIDAZOLOPYRIMIDINE ANALOGS AND THEIR USE AS PI3 KINASE AND MTOR INHIBITORS” (Wyeth, priority 2007, published 2008).

Test [1] has as its target PI3 Kinase. Nature of the test: PI3K fluorescence polarization assay. It counts as biochemical. The conditions noted are these: 25 μM ATP, diC8-PI(4,5)P2 substrate, 1 hour at 25° C.; read-out: PI3 Kinase Median IC50.
Protocol: Nunc 384 well black polypropylene fluorescent plates are used for PI3K assays. Reactions are quenched by the addition of EDTA to a final concentration of 10 mM. Final reaction volumes are 10 μl. […] Reactions are allowed to proceed for one hour at 25° C. After 1 hour, GST-tagged GRP1 (general receptor for phosphoinositides) PH domain fusion protein is added to a final concentration of 100 nM, and BODIPY-TMRI(1,3,4,5)P4 (Echelon) is also added to a final concentration of 5 nM. Final sample volumes are 25 μl with a final DMSO concentration of 0.8%. Assay Plates are read on Perkin-Elmer Envision plate readers with appropriate filters for Tamra [BODIPY-TMRI(1,3,4,5)P4].
In test [2] the target is T1, human TOR (Homo sapiens, UniProt P42345).
T1 construct: FLAG
Nature of the test: mTOR enzyme assay (DELFIA format, purified FLAG-TOR, His6-S6K substrate). It is filed as biochemical. The settings on record: 100 μM ATP, 1.25 μM His6-S6K, 2 hours at room temperature; read-out: TOR Kinase Median IC50.

Molecules are shown by their SMILES.

On to `c1csc(-c2nc(N3CCOCC3)c3nc[nH]c3n2)c1` [Compound 1, 6-morpholin-4-yl-2-(2-thienyl)-9H-purine], for which the results for the IC50 in test [1] and in test [2] were 724 nM and 2800 nM, respectively. For `c1nc2c(N3CCOCC3)nc(-c3ccsc3)nc2[nH]1` [Compound 2, 6-morpholin-4-yl-2-(3-thienyl)-9H-purine], in that order: 3290 nM and 3900 nM. Turning to `Oc1ccccc1-c1nc(N2CCOCC2)c2nc[nH]c2n1` [Compound 3, 2-(6-morpholin-4-yl-9H-purin-2-yl)phenol], in test [2], the IC50 turned out to be 2500 nM.

With `Oc1ccc(-c2nc(N3CCOCC3)c3nc[nH]c3n2)cc1` [Compound 4, 4-(6-morpholin-4-yl-9H-purin-2-yl)phenol], the results for the half-maximal inhibitory concentration (IC50) in test [1] and in test [2] were 2680 nM and 450 nM, respectively.

On to `OCc1ccc(-c2nc(N3CCOCC3)c3nc[nH]c3n2)cc1` [Compound 5, [4-(6-morpholin-4-yl-9H-purin-2-yl)phenyl]methanol], for which the IC50 amounted to 3750 nM in test [1] and 4500 nM in test [2]. Regarding `c1cc2cc(-c3nc(N4CCOCC4)c4nc[nH]c4n3)ccc2[nH]1` [Compound 6, 2-(1H-indol-5-yl)-6-morpholin-4-yl-9H-purine], the IC50 in test [1] stood at 2750 nM; in test [2], 180 nM. As to `c1nc2c(N3CCOCC3)nc(-c3ccc4c(c3)OCO4)nc2[nH]1` [Compound 7, 2-(1,3-benzodioxol-5-yl)-6-morpholin-4-yl-9H-purine], the IC50 in test [1] came out at 1230 nM; in test [2], 8900 nM. On to `O=[N+]([O-])c1cccc(-c2nc(N3CCOCC3)c3nc[nH]c3n2)c1` [Compound 8, 6-morpholin-4-yl-2-(3-nitrophenyl)-9H-purine], for which the IC50 in test [1] is 8900 nM. Still for that read-out and setting: next, `c1ccc2c(-c3nc(N4CCOCC4)c4nc[nH]c4n3)csc2c1` [Compound 9, 2-(1-benzothien-3-yl)-6-morpholin-4-yl-9H-purine]: 2000 nM; `FC(F)(F)c1cccc(-c2nc(N3CCOCC3)c3nc[nH]c3n2)c1` [Compound 10, 6-morpholin-4-yl-2-[3-(trifluoromethyl)phenyl]-9H-purine]: 5710 nM.

For `Cc1cccc(-c2nc(N3CCOCC3)c3nc[nH]c3n2)c1` [Compound 11, 2-(3-methylphenyl)-6-morpholin-4-yl-9H-purine], in test [1], the IC50 came out at 4210 nM. The same measure, in the same setting: then `CC(C)c1cccc(-c2nc(N3CCOCC3)c3nc[nH]c3n2)c1` [Compound 12, 2-(3-isopropylphenyl)-6-morpholin-4-yl-9H-purine], with 9920 nM; and `N#Cc1cccc(-c2nc(N3CCOCC3)c3nc[nH]c3n2)c1` [Compound 13, 3-(6-morpholin-4-yl-9H-purin-2-yl)benzonitrile], with 3590 nM. For `c1ccc(-c2cccc(-c3nc(N4CCOCC4)c4nc[nH]c4n3)c2)cc1` [Compound 14, 2-biphenyl-3-yl-6-morpholin-4-yl-9H-purine], the IC50 in test [1] was 4440 nM. Still for that read-out and setting: next, `c1ccc(Oc2ccccc2-c2nc(N3CCOCC3)c3nc[nH]c3n2)cc1` [Compound 16, 6-morpholin-4-yl-2-(2-phenoxyphenyl)-9H-purine]: 8940 nM; `CN(C)C(=O)c1ccc(-c2nc(N3CCOCC3)c3nc[nH]c3n2)cc1` [Compound 17, N,N-dimethyl-4-(6-morpholin-4-yl-9H-purin-2-yl)benzamide]: 5930 nM. Same read-out and setting: next, `c1nc2c(N3CCOCC3)nc(-c3ccoc3)nc2[nH]1` [Compound 19, 2-(3-furyl)-6-morpholin-4-yl-9H-purine]: 4340 nM; `Oc1cccc(-c2nc(N3CCCCC3)c3nc[nH]c3n2)c1` [Compound 21, 3-(6-Piperidin-1-yl-9H-purin-2-yl)-phenol]: 4300 nM. The same measure, in the same setting: then `CS(=O)(=O)c1ccc(-c2nc(N3CCOCC3)c3nc[nH]c3n2)cc1` [Compound 22, 2-(4-Methanesulfonyl-phenyl)-6-morpholin-4-yl-9H-purine], with 2160 nM. In the case of `COc1cc(COc2cccc(-c3nc(N4CCOCC4)c4nc[nH]c4n3)c2)cc(OC)c1` [Compound 23, 2-[3-(3,5-Dimethoxy-benzyloxy)-phenyl]-6-morpholin-4-yl-9H-purine], the IC50 in test [1] is 6200 nM; in test [2], 16500 nM. The corresponding values for `Clc1cc(-c2nc(N3CCOCC3)c3nc[nH]c3n2)ccc1OCc1ccccc1` [Compound 24, 2-(4-Benzyloxy-3-chloro-phenyl)-6-morpholin-4-yl-9H-purine] are 4530 nM and over 20000 nM. For `OCc1cccc(-c2nc(N3CCOCC3)c3ncn(C4CCNCC4)c3n2)c1` [Compound 25, [3-(6-Morpholin-4-yl-9-piperidin-4-yl-9H-purin-2-yl)-phenyl]-methanol], in that order: 57 nM and 7200 nM.

Turning to `CC(=O)N1CCC(n2cnc3c(N4CCOCC4)nc(-c4cccc(CO)c4)nc32)CC1` [Compound 26, 1-(4-(2-(3-(hydroxymethyl)phenyl)-6-morpholino-9H-purin-9-yl)piperidin-1-yl)ethanone], the concentration for half-maximal inhibition (IC50) in test [1] is 189 nM; in test [2] it was 2100 nM. The corresponding values for `Oc1cccc(-c2nc(N3CCOCC3)c3ncn(CC4CCN(Cc5ccccc5)CC4)c3n2)c1` [Compound 27, 3-(9-((1-benzylpiperidin-4-yl)methyl)-6-morpholino-9H-purin-2-yl)phenol] are 193 nM and 600 nM. With `Oc1cccc(-c2nc(N3CCOCC3)c3ncn(C4CCN(Cc5ccccc5)CC4)c3n2)c1` [Compound 28, 3-(9-(1-benzylpiperidin-4-yl)-6-morpholino-9H-purin-2-yl)phenol], the IC50 in test [2] worked out at 140 nM. Take `OCc1cccc(-c2nc(N3CCOCC3)c3ncn(CC4CCN(Cc5ccccc5)CC4)c3n2)c1` [Compound 29, (3-(9-((1-benzylpiperidin-4-yl)methyl)-6-morpholino-9H-purin-2-yl)phenyl)methanol]: the IC50 in test [1] was 243 nM; in test [2] it was 10500 nM. `OCc1cccc(-c2nc(N3CCOCC3)c3ncn(C4CCN(Cc5ccccc5)CC4)c3n2)c1` [Compound 33, {3-[9-(1-benzylpiperidin-4-yl)-6-morpholin-4-yl-9H-purin-2-yl]phenyl}methanol]: the IC50 in test [2] worked out at 700 nM. As for `O=Cc1cncc(-c2nc(N3CCOCC3)c3ncn(C4CCN(Cc5ccccc5)CC4)c3n2)c1` [Compound 34, 5-[9-(1-benzylpiperidin-4-yl)-6-morpholin-4-yl-9H-purin-2-yl]nicotinaldehyde], the values for the IC50 in test [1] and in test [2] were 77 nM and 170 nM, respectively.

Regarding `OCc1cncc(-c2nc(N3CCOCC3)c3ncn(C4CCN(Cc5ccccc5)CC4)c3n2)c1` [Compound 35, {5-[9-(1-benzylpiperidin-4-yl)-6-morpholin-4-yl-9H-purin-2-yl]pyridin-3-yl}methanol], the IC50 in test [1] was found to be 63 nM; in test [2] it was 1000 nM. For `Oc1cncc(-c2nc(N3CCOCC3)c3ncn(C4CCNCC4)c3n2)c1` [Compound 36, 5-(6-morpholin-4-yl-9-piperidin-4-yl-9H-purin-2-yl)pyridin-3-ol], in that order: 14 nM and 970 nM.

For `Cc1ccc(CN2CCC(n3cnc4c(N5CCOCC5)nc(-c5cncc(O)c5)nc43)CC2)s1` [Compound 37, 5-(9-{1-[(5-methyl-2-thienyl)methyl]piperidin-4-yl}-6-morpholin-4-yl-9H-purin-2-yl)pyridin-3-ol], the values for the IC50 in test [1] and in test [2] were 26 nM and 140 nM, respectively.

With `Oc1cncc(-c2nc(N3CCOCC3)c3ncn(C4CCN(Cc5ccc(Cl)cc5)CC4)c3n2)c1` [Compound 38, 5-{9-[1-(4-chlorobenzyl)piperidin-4-yl]-6-morpholin-4-yl-9H-purin-2-yl}pyridin-3-ol], the IC50 in test [2] worked out at 160 nM. Take `Oc1cncc(-c2nc(N3CCOCC3)c3ncn(C4CCN(Cc5ccc[nH]5)CC4)c3n2)c1` [Compound 39, 5-{6-morpholin-4-yl-9-[1-(1H-pyrrol-2-ylmethyl)piperidin-4-yl]-9H-purin-2-yl}pyridin-3-ol]: the IC50 is 31 nM in test [1] and 940 nM in test [2]. Regarding `Cc1ccc(CN2CCC(n3cnc4c(N5CCOCC5)nc(-c5cncc(O)c5)nc43)CC2)cc1` [Compound 40, 5-{9-[1-(4-methylbenzyl)piperidin-4-yl]-6-morpholin-4-yl-9H-purin-2-yl}pyridin-3-ol], in test [2], the half-inhibitory concentration (IC50) worked out at 590 nM. The same measure, in the same setting: then `OCc1cccc(-c2nc(N3CCOCC3)c3ncn(C4CCN(Cc5ccc(-c6ccncc6)cc5)CC4)c3n2)c1` [Compound 47, (3-{6-morpholin-4-yl-9-[1-(4-pyridin-4-ylbenzyl)piperidin-4-yl]-9H-purin-2-yl}phenyl)methanol], with 720 nM; and `OCc1cccc(-c2nc(N3CCOCC3)c3ncn(C4CCN(Cc5ccccc5)CC4)c3n2)c1` [Compound 51, {3-[9-(1-benzylpiperidin-4-yl)-6-morpholin-4-yl-9H-purin-2-yl]phenyl}methanol], with 1000 nM. On the same count and under the same terms, then `COc1cccc(-c2nc(N3CCOCC3)c3nc[nH]c3n2)c1` [Compound 53, 4-(2-(3-methoxyphenyl)-9H-purin-6-yl)morpholine], with over 20000 nM. On to `c1ccc(-c2nc(N3CCOCC3)c3nc[nH]c3n2)cc1` [Compound 54, 4-(2-phenyl-9H-purin-6-yl)morpholine], for which the IC50 in test [2] worked out at 19000 nM. Still for that read-out and setting: next, `Oc1cccc(-c2nc(N3CCOCC3)c3nc[nH]c3n2)c1` [Compound 55, 3-(6-morpholino-9H-purin-2-yl)phenol]: 2120 nM; `Oc1cccc(-c2nc(N3CCOCC3)c3ncn(C4CCN(Cc5cccnc5)CC4)c3n2)c1` [Compound 76, 3-{6-morpholin-4-yl-9-[1-(pyridin-3-ylmethyl)piperidin-4-yl]-9H-purin-2-yl}phenol]: 170 nM; `Oc1cccc(-c2nc(N3CCOCC3)c3ncn(C4CCN(Cc5ccc(Br)nc5)CC4)c3n2)c1` [Compound 81, 3-(9-{1-[(6-bromopyridin-3-yl)methyl]piperidin-4-yl}-6-morpholin-4-yl-9H-purin-2-yl)phenol]: 120 nM.
